Test results published in ChEMBL document CHEMBL1141815, “KR025, a new cytotoxic compound from Myxococcus fulvus” (J Nat Prod, 1999).
Values after ≈ are worked out from the molar mass of the structure shown.

What was measured:
Format in all cases: functional, cell-based
HCT-15 = test: Cytotoxicity against human HCT-15 cells after 72 hrs by SRB assay; details: HCT-15, 72 h
XF498 = test: Cytotoxicity against human XF498 cells after 72 hrs by SRB assay; details: XF498, 72 h
SK-OV-3 = test: Cytotoxicity against human SKOV3 cells after 72 hrs by SRB assay; details: SK-OV-3, 72 h
A549 = test: Cytotoxicity against human A549 cells after 72 hrs by SRB assay; details: A549, 72 h
SK-MEL-2 = test: Cytotoxicity against human SK-MEL-2 cells after 72 hrs by SRB assay; details: SK-MEL-2, 72 h

| Compound | IC50 (HCT-15) [ng/mL] | IC50 (XF498) [ng/mL] | IC50 (SK-OV-3) [ng/mL] | IC50 (A549) [ng/mL] | IC50 (SK-MEL-2) [ng/mL] |
| --- | --- | --- | --- | --- | --- |
| CO/C(=C/C(N)=O)[C@H](C)[C@H](/C=C/c1csc(-c2csc([C@@H](C)/C=C/C=C/C(C)C)n2)n1)OC [MYXOTHIAZOL] | 0.03 (≈ 0.0615 nM) | 0.03 (≈ 0.0615 nM) | 0.01 (≈ 0.0205 nM) | 0.01 (≈ 0.0205 nM) | 9.7 (≈ 19.9 nM) |
| COC(=O)/C=C(/OC)[C@H](C)[C@H](/C=C/c1csc(-c2cnc([C@@H](C)/C=C/C=C/C(C)C)s2)n1)OC | 0.06 (≈ 0.119 nM) | 0.03 (≈ 0.0597 nM) | 0.04 (≈ 0.0796 nM) | 0.02 (≈ 0.0398 nM) | 8.5 (≈ 16.9 nM) |
| CCCCCC[C@H]1C(=O)O[C@H](C)[C@H](NC(=O)c2cccc(NC=O)c2O)C(=O)O[C@@H](C)[C@@H]1OC(=O)CC(C)C [ANTIMYCIN A] | 410 (≈ 747 nM) | 390 (≈ 711 nM) | 5500 (≈ 10000 nM) | 480 (≈ 875 nM) | 270 (≈ 492 nM) |
